Laboratory results published in patent publication US9994915B2, “miR-211 expression and related pathways in human melanoma” (Sanford-Burnham Medical Research Institute, priority 2010, dated 2018).

Assays:
Assay type in all cases: cell-based, human
A375 melanoma cells [1] = assay: cell proliferation (cell counts) of A375 lines; details: A375/211
Protocol: The over-expression of KCNMA1 is often associated with both cell proliferation and cell migration/invasion in various cancers. Therefore, the effects of depletion of miR-211 and associated over-expression of KCNMA1 on these process in melanoma cells were determined. Proliferation rates of melanoma cell lines stably transfected with the miR-211 expression cassette were compared with those of untransfected melanoma cells and cell lines transfected with the empty expression vector (FIG. 8A), respectively.
Assays were performed using WM1552C, WM1552C/VO, WM1552C/211(400), WM1552C/211(800), A375, A375/VO, and A375/211 cell lines. Cells were grown in log phase, trypsinized, counted using an automated cell counter (Cellometer®, Nexcelom Bioscience), and then seeded into 75 cm^2 flasks at 5×10^5 cells per flask (in triplicate). Media was changed after 6 hours, and cells were further fed every 48 hours (Complete Tu Media). At days 4, 10, 15, and 21, cells were trypsinized, counted (Cellometer®, Nexcelom Bioscience), and then reseeded. Each assay was performed in duplicate for all cell lines.

KCNMA1 transcript = assay: qRT-PCR of KCNMA1 transcript in WM1552C lines; details: WM1552C/211(400)
Protocol: Expression levels of all statistically significant and differentially expressed mRNAs and miRNAs were confirmed by qRT-PCR using TaqMan® expression kits (Applied Biosystems) using multiple technical and biological replicates. GAPDH was used as the internal reference probe for normalization of expression values of mRNA, and RNU48 was used for normalization of miRNA. RNA analysis by Northern blots used 20 μg of total RNA concentrated from each sample (melanoma cell lines and melanocytes), separated on 15% urea denaturing polyacrylamide gels by electrophoresis. Gels were electroblotted to nylon membranes, cross-linked by UV, prehybridized in ULTRAhyb®-Oligo (Ambion) for 30 minutes at 42° C., and hybridized with 5′-biotinylated anti-miRNA DNA oligonucleotides (100 nM each) at 42° C. overnight, washed, and detected by chemiluminescence (Brightstar® detection kit, Ambion). Anti-U6 probes were used as a reference control (at 10 pM).
qRT-PCR analyses were then run to determine whether the induced expression of miR-211 in melanoma cells could reduce KCNMA1 transcript levels. […] To further confirm our observations, we measured the correlation between miR-211 expression and KCNMA1 protein levels (FIG. 6D). […] Melanocytes were transfected with anti-miR-211 inhibitors (Exiqon) and the protein expression of KCNMA1 was measured.

WM1552C cells = assay: cell counts in hypoxic chamber (2% O2), WM1552C/211; details: WM1552C/211 cells, hypoxic chamber 2% O2 (parental WM1552C about 64%)
Text: To test under actual hypoxic conditions, both cell lines were placed into a hypoxic chamber containing 2% O2 prior to determination of cell counts. […] As in the DFO-simulated hypoxic condition assay, the presence of miR-211 caused the effect to be greatly exacerbated, reducing survival to about 29%.

A375 melanoma cells [2] = assay: oxygen consumption, Seahorse XF96 Analyzer; details: miR-211-expressing A375 cells
Protocol: Deep-sequencing (RNA-seq) and proteomics (mass spectrometry) data from two melanoma cell lines A375 and W[…], each expressing miR-211 or the empty vector, were generated. […] Energy consumption was investigated in miR-211-expressing cells. Using the Seahorse XF96 Analyzer, it was determined that miR-211-expressing melanoma cells (A375) consumed nearly double the amount of oxygen as control cells expressing the empty vector (FIG. 35). […] Finally, we measured the level of hypoxia-inducible factor 1 alpha (HIF-1α) in miR-211-expressing cells. HIF-1α expression was reduced by miR-211 expression which is an indication of cellular respiration changes (FIG. 37).

PDK4 protein = assay: western blot of PDK4 protein; details: miR-211-expressing melanoma cells, gel (FIG. 38)
Text: This target was further confirmed by the cleavage assay, and the downregulation was verified by western blot analysis (FIG. 38). Similarly, peroxisome proliferator-activated receptor-γ coactivator (PGC1α) was identified by the proteomics data and validated by western blot analysis. PGC1α is a low express gene in A375 cells, but it is been targeted by miR-211 according to target cleavage and qPCR results. Finally, insulin-like growth factor-binding protein 5 (IGFBP5) was identified through the RNA-seq data and results are illustrated in FIG. 34.

A375 cells = assay: lipid species (PI acyl chains) by mass spectrometry in A375 vs A375/211; details: A375/211 vs A375 cells
Text: To determine the effect of miR-211 expression in A375 cells on the production of lipid species, as an indicator of metabolic change, fatty acids were isolated and quantitated in A375 cells and A375/211 by mass spectrometry. […] This confirms that miR-211 is capable of altering the metabolic profile of these metabolic cells.

## miR-211: pre-miR-211 sequence stably expressed from plasmid pcDNA4/miR-211 in melanoma cells; mature sequence UUCCCUUUGUCAUCCUUCGCCU (SEQ ID NO: 15) (listed as Homo sapiens)
A375 melanoma cells [1]
  cell proliferation compared to untransfected A375 or A375/VO: grew more slowly
KCNMA1 transcript
  KCNMA1 transcript expression vs wild type WM1552C: down-regulates
WM1552C cells
  survival vs normoxic condition cells: 34%
A375 melanoma cells [2]
  amount of oxygen consumed vs empty vector control cells: nearly double
PDK4 protein
  PDK4 protein expression: virtually undetectable
A375 cells
  content of 18:0-18:2 acyl chains: large increase
  content of 18:0-20:4 acyl chains: large decrease
